Paper PMC8885877, “STAT3 inhibition suppresses adaptive survival of ALK-rearranged lung cancer cells through transcriptional modulation of apoptosis” (NPJ Precision Oncology, 2022)

Target: STAT3 (Homo sapiens, UniProt P40763)
Assay: Alpha-based competitive binding assay with biotinylated recombinant STAT3 and FITC-labeled phospho-Tyr peptide
Excerpt: Alpha-based competitive binding assay with biotinylated recombinant STAT3 and FITC-labeled phospho-Tyr peptide on STAT3 | inhibited the binding of phospho-Tyr peptide to the SH2 domain of STAT3 in a concentration-dependent manner with IC50 values

STAT3, sequence (P40763 2-770): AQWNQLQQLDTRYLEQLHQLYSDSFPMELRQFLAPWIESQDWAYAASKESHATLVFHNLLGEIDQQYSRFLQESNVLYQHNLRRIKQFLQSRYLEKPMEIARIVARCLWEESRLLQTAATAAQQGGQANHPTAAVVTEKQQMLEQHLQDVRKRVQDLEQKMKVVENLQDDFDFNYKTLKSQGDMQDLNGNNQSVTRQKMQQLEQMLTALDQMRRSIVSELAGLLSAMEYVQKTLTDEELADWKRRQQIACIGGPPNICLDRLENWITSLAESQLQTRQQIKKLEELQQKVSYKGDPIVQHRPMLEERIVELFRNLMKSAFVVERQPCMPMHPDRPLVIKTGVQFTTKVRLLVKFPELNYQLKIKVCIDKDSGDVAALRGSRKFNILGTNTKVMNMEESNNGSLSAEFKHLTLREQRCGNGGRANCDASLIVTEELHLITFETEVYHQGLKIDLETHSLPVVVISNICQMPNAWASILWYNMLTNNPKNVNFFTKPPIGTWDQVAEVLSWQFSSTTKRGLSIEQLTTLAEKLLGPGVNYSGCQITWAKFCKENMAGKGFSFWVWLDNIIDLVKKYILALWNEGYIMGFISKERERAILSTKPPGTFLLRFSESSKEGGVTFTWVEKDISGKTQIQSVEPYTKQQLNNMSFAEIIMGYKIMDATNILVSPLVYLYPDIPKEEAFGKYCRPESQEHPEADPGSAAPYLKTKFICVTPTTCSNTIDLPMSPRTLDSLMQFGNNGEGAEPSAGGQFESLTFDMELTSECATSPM

YHO-1701 showed an IC50 of 2.5 µM.
